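Method: 48-hour compound exposure of cells in 96-well plates, five concentrations, linear interpolation of endpoints. At the TGI there is no net growth.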
Tests used:
Test in all cases: NCI tumour cell line growth inhibition, 48 h
SN12C renal = system: SN12C renal
SK-MEL-2 melanoma = system: SK-MEL-2 melanoma
PC-3 prostate = system: PC-3 prostate
SW-620 colon = system: SW-620 colon
SNB-75 CNS = system: SNB-75 CNS
DU-145 prostate = system: DU-145 prostate
UACC-62 melanoma = system: UACC-62 melanoma
CAKI-1 renal = system: CAKI-1 renal
HOP-62 NSCLC = system: HOP-62 NSCLC
HCT-116 colon = system: HCT-116 colon
SF-268 CNS = system: SF-268 CNS
RPMI-8226 leukemia = system: RPMI-8226 leukemia
MALME-3M melanoma = system: MALME-3M melanoma
MOLT-4 leukemia = system: MOLT-4 leukemia
M14 melanoma = system: M14 melanoma
T-47D breast = system: T-47D breast
CCRF-CEM leukemia = system: CCRF-CEM leukemia
BT-549 breast = system: BT-549 breast
RXF 393 renal = system: RXF 393 renal
A549 NSCLC = system: A549 NSCLC
NCI-H23 lung = system: NCI-H23 lung
LOX IMVI melanoma = system: LOX IMVI melanoma
OVCAR-4 ovarian = system: OVCAR-4 ovarian
MDA-N = system: MDA-N
IGROV1 ovarian = system: IGROV1 ovarian
ACHN renal = system: ACHN renal
OVCAR-3 ovarian = system: OVCAR-3 ovarian
HL-60(TB) leukemia = system: HL-60(TB) leukemia
MCF7 breast = system: MCF7 breast
UACC-257 melanoma = system: UACC-257 melanoma
K-562 leukemia = system: K-562 leukemia
MDA-MB-435 = system: MDA-MB-435
SF-295 CNS = system: SF-295 CNS
U251 CNS = system: U251 CNS
HT29 colon = system: HT29 colon
NCI-H522 lung = system: NCI-H522 lung
HOP-92 NSCLC = system: HOP-92 NSCLC
SK-OV-3 ovarian = system: SK-OV-3 ovarian
HCC-2998 colon = system: HCC-2998 colon
NCI/ADR-RES ovarian = system: NCI/ADR-RES ovarian
HS 578T breast = system: HS 578T breast
HCT-15 colon = system: HCT-15 colon
SK-MEL-28 melanoma = system: SK-MEL-28 melanoma
A498 renal = system: A498 renal
SNB-19 CNS = system: SNB-19 CNS
OVCAR-8 ovarian = system: OVCAR-8 ovarian
SK-MEL-5 melanoma = system: SK-MEL-5 melanoma
786-0 renal = system: 786-0 renal
NCI-H460 lung = system: NCI-H460 lung
EKVX NSCLC = system: EKVX NSCLC
COLO 205 colon = system: COLO 205 colon
OVCAR-5 ovarian = system: OVCAR-5 ovarian
MDA-MB-231 breast = system: MDA-MB-231 breast
KM12 colon = system: KM12 colon
UO-31 renal = system: UO-31 renal
TK-10 renal = system: TK-10 renal
SF-539 CNS = system: SF-539 CNS
NCI-H226 lung = system: NCI-H226 lung

O=C1/C(=C/c2ccccc2S)N=C(c2ccccc2)N1c1nc2ccc(Sc3ccccc3)cc2[nH]1
TGI (SN12C renal): 99.1 µM
TGI (SK-MEL-2 melanoma): 36.2 µM
TGI (PC-3 prostate): > 100 µM
TGI (SW-620 colon): > 100 µM
TGI (SNB-75 CNS): 93.5 µM
TGI (DU-145 prostate): > 100 µM
TGI (UACC-62 melanoma): 73.5 µM
TGI (CAKI-1 renal): > 100 µM
TGI (HOP-62 NSCLC): > 100 µM
TGI (HCT-116 colon): > 100 µM
TGI (SF-268 CNS): > 100 µM
TGI (RPMI-8226 leukemia): 65.7 µM
TGI (MALME-3M melanoma): > 100 µM
TGI (MOLT-4 leukemia): > 100 µM
TGI (M14 melanoma): 49 µM
TGI (T-47D breast): > 100 µM
TGI (CCRF-CEM leukemia): > 100 µM
TGI (BT-549 breast): 61.1 µM
TGI (RXF 393 renal): > 100 µM
TGI (A549 NSCLC): > 100 µM
TGI (NCI-H23 lung): > 100 µM
TGI (LOX IMVI melanoma): > 100 µM
TGI (OVCAR-4 ovarian): > 100 µM
TGI (MDA-N): 34.4 µM
TGI (IGROV1 ovarian): > 100 µM
TGI (ACHN renal): > 100 µM
TGI (OVCAR-3 ovarian): 57.2 µM
TGI (HL-60(TB) leukemia): 52.1 µM
TGI (MCF7 breast): 84.5 µM
TGI (UACC-257 melanoma): 69.2 µM
TGI (K-562 leukemia): > 100 µM
TGI (MDA-MB-435): 29.7 µM
TGI (SF-295 CNS): 72.5 µM
TGI (U251 CNS): 51.7 µM
TGI (HT29 colon): 43.1 µM
TGI (NCI-H522 lung): 54.2 µM
TGI (HOP-92 NSCLC): > 100 µM
TGI (SK-OV-3 ovarian): > 100 µM
TGI (HCC-2998 colon): 37.6 µM
TGI (NCI/ADR-RES ovarian): 50.4 µM
TGI (HS 578T breast): 72.6 µM
TGI (HCT-15 colon): > 100 µM
TGI (SK-MEL-28 melanoma): > 100 µM
TGI (A498 renal): > 100 µM
TGI (SNB-19 CNS): > 100 µM
TGI (OVCAR-8 ovarian): > 100 µM
TGI (SK-MEL-5 melanoma): 38.6 µM
TGI (786-0 renal): 87.1 µM
TGI (NCI-H460 lung): 57 µM
TGI (EKVX NSCLC): > 100 µM
TGI (COLO 205 colon): 34.6 µM
TGI (OVCAR-5 ovarian): > 100 µM
TGI (MDA-MB-231 breast): 71.6 µM
TGI (KM12 colon): > 100 µM
TGI (UO-31 renal): > 100 µM
TGI (TK-10 renal): 70.3 µM

Nc1nn2c(C(Br)Br)cc(C(Br)Br)nc2c1[N+](=O)[O-]
TGI (PC-3 prostate): 2.73 µM
TGI (SW-620 colon): 0.77 µM
TGI (SNB-75 CNS): 2.29 µM
TGI (DU-145 prostate): 3.46 µM
TGI (UACC-62 melanoma): 4.06 µM
TGI (CAKI-1 renal): 0.954 µM
TGI (HCT-116 colon): 2.23 µM
TGI (SF-268 CNS): 4.8 µM
TGI (RPMI-8226 leukemia): 1.72 µM
TGI (MALME-3M melanoma): 2.14 µM
TGI (MOLT-4 leukemia): 1.21 µM
TGI (M14 melanoma): 1.81 µM
TGI (T-47D breast): 5.27 µM
TGI (CCRF-CEM leukemia): 0.51 µM
TGI (BT-549 breast): 2.09 µM
TGI (SF-539 CNS): 1.16 µM
TGI (RXF 393 renal): 4.35 µM
TGI (A549 NSCLC): 20.1 µM
TGI (NCI-H23 lung): 4.61 µM
TGI (LOX IMVI melanoma): 0.799 µM
TGI (MDA-N): 2.26 µM
TGI (IGROV1 ovarian): 3.38 µM
TGI (ACHN renal): 2.1 µM
TGI (HL-60(TB) leukemia): 0.431 µM
TGI (UACC-257 melanoma): 3.11 µM
TGI (K-562 leukemia): 0.857 µM
TGI (MDA-MB-435): 1.76 µM
TGI (SF-295 CNS): 4.46 µM
TGI (U251 CNS): 2.54 µM
TGI (HT29 colon): 3.28 µM
TGI (NCI-H522 lung): 0.248 µM
TGI (SK-OV-3 ovarian): 12 µM
TGI (HCC-2998 colon): 4.52 µM
TGI (NCI/ADR-RES ovarian): > 34 µM
TGI (HS 578T breast): 6.28 µM
TGI (HCT-15 colon): 2.34 µM
TGI (SK-MEL-28 melanoma): 2.88 µM
TGI (A498 renal): 4.72 µM
TGI (SNB-19 CNS): 3.05 µM
TGI (SK-MEL-5 melanoma): 3.06 µM
TGI (786-0 renal): 1.08 µM
TGI (NCI-H460 lung): 7.5 µM
TGI (NCI-H226 lung): 5.5 µM
TGI (EKVX NSCLC): 6.45 µM
TGI (COLO 205 colon): 1.94 µM
TGI (OVCAR-5 ovarian): 3.12 µM
TGI (MDA-MB-231 breast): 2.95 µM
TGI (KM12 colon): 2.83 µM
TGI (UO-31 renal): 2.5 µM
TGI (TK-10 renal): 2.28 µM
